Data on one compound can be found in patent publication US11174270B2, “Crystal form of 3,4-dihydrothieno[3,2-d]pyrimidine compound and preparation method thereof” (PHAENO THERAPEUTICS CO., LTD., priority 2018, dated 2021).

In data set [1] the test system is human cytomegalovirus (HCMV). Nature of the data set: Fluorescence decay assay against human cytomegalovirus. It counts as cell-based. Particulars: Human betaherpesvirus 5, 240 h; US3-6-EGFP-HCMV-AD169 in MRCS cells, 10 days of culture, GFP fluorescence intensity. The method, then: Fluorescence Decay Assay Against Human Cytomegalovirus
The antiviral activity of the compound against human cytomegalovirus (HCMV) was evaluated by determining the median effective concentration (EC50) value of the compound. The HCMV used in this assay was inserted with enhanced green fluorescent protein (EGFP) as a reporter gene by gene recombination, and thus the replication of the virus in cells can be reflected by the expression level of GFP. The inhibitory activity of the compound on the expression of GFP in HCMV was evaluated by determining the fluorescence intensity in the wells of different concentrations of the compound using a high-content cell analysis platform Acumen eX3.
Fluorescence Decay Assay Against HCMV
MRCS cells were inoculated into a black 96-well cell culture plate at a density of 20,000 cells per well, and then incubated overnight in a 37° C., 5% CO2 incubator. US3-6-EGFP-HCMV-AD169 viruses were added to the cell culture wells at a certain MOI (0.003 to 0.1), and incubated in a 37° C., 5% CO2 incubator for 3 hours. After adsorption of viruses, the medium containing viruses was pipetted out, and 200 μl of cell culture medium containing different concentrations of the compound (4-fold dilution, 6 test concentrations) was added. […] After 10 days of culture, the fluorescence intensity was detected with a high content cell analysis platform Acumen eX3 (TTP LabTech). […]

The nature of data set [2]: Plasma protein binding rate, equilibrium dialysis, human plasma. To be noted: equilibrium dialysis 37° C. 4 hours, read-out: Plasma Protein Binding PPB bound(%) (converted). It is filed as in vitro ADME. As to the method: Determination of the Plasma Protein Binding Rate of the Compound
The protein-binding rates of the test compound in the plasma of CD-1 mice, SD rats and human were evaluated by the equilibrium dialysis method. Compound 1 was diluted into the plasma of the above three species respectively to prepare samples with a final concentration of 2 μM. The samples were then added to a 96-well equilibrium dialysis device, and dialyzed against phosphate buffer solution at 37° C. for 4 hours. Warfarin was used as a control compound in the assay. The concentrations of the test compound and warfarin in the plasma and buffer were determined by LC-MS/MS method.
In general terms: In equilibrium dialysis free small molecules cross a membrane that holds back macromolecules.

A further data set has as its system HCMV (strain: GFP-AD169). Briefly: Human cytomegalovirus (HCMV) transplantation model in mice. It counts as in vivo. Particulars: NOD SCID mice, 8 mg/kg orally once per day. The method, then:
Human Cytomegalovirus (HCMV) Transplantation Model in Mice
Gelatin sponge containing HCMV was transplanted into mice. After 9 days of continuous administration, the gelatin sponge was collected for plaque detection. The anti-HCMV effect of the compound in this model was evaluated by detecting the amount of HCMV in the gelatin sponge.
The animals used in the assay were NOD SCID mice (purchased from Shanghai SLAC Laboratory Animal Co., Ltd.), 5 weeks old, and male. There were 5 animals in each group. The day on which the mice were subjected to gelatin sponge transplantation was set as day 0. Human foreskin fibroblasts (HFF, MOI=0.03) were infected with HCMV (strain: GFP-AD169) in advance, and then the HFF cells infected with HCMV were added to 1 cm^2 gelatin sponges and incubated for use. The animals were anesthetized by intraperitoneal injection of pentobarbital sodium at a dose of 75 mg/kg (10 ml/kg). After the animals entered the deep anesthesia state, the treated gelatin sponges were subcutaneously transplanted into the back of the mice. From day 1 to day 9, 8 mg/kg (10 ml/kg) of compound 1 was administered orally once per day. On the day 9, four hours after the administration, the gelatin sponges were taken out and digested, and then the plaques were detected.

pEC50: −log10 of the molar value.

A word on the pEC50: it is the EC50 on a negative log10 scale, so that one unit is a factor of ten. With `COc1cc(N2CCN(C3=Nc4ccsc4[C@H](CC(=O)O)N3c3cc(C(F)(F)F)ccc3OC)C[C@H]2C)ccn1` (single isomer, unassigned) [Compound 1], the pEC50 in data set [1] is 9.70. For the same compound, the fraction unbound at 4 h, 2 μM in data set [2] was 0.06. Moreover, in the data set on HCMV (strain: GFP-AD169) (day 1 to day 9), the “body weights of the mice” value was “stable” and the clinical observations entry is reported as “no abnormality was found”. Also, in the data set with HCMV (strain: GFP-AD169) (gelatin sponge with HCMV-infected HFF, day 1 to day 9, plaque detection), the “decrease in HCMV viral load” value was 2.38 log PFU/ml.
